# PMC8305076, “Comprehensive Evaluation of Biological Effects of Pentathiepins on Various Human Cancer Cell Lines and Insights into Their Mode of Action” (International Journal of Molecular Sciences, 2021)
# What was measured:
# Assay type in all cases: cell-based, human
# DanG = test: DCFDA flow cytometric ROS assay, acute; details: 25 µM, 15 min
# Experimental: (§1) According to the hypothesized mechanism of action (see Figure 3), pentathiepins can create oxidative stress via generation of reactive sulfur precursors. We have previously reported that a representative pentathiepin can increase the intracellular levels of ROS in two cancer cell lines. This effect was thus further evaluated with the new compounds in seven cell lines (Figure 8). The cells were incubated for 15 min with 25.0 µM pentathiepin and subsequently analyzed by using the intracellular ROS sensor 2′,7′-dichlorodihydrofluorescein diacetate (DCFDA) by flow cytometry.
# (§2) In order to quantify intracellular ROS, we performed a flow cytometric assay based on the ROS-sensor 2′,7′-dichlorofluorescein diacetate (DCFDA). For acute effects of pentathiepins on intracellular ROS levels, the cells were stained with DCFDA first and subsequently incubated with 25 µM of compound for 10 min. […] Per condition, 250,000 cells were seeded in 2 mL of medium per well of a 6-well plate and allowed to adhere overnight. For measurement of acute ROS, the cells were stained with 1 mL of a 20 µM DCFDA-PBS solution for 30 min under standard incubation conditions. Afterwards, the solution was discarded, and the monolayer washed twice with 1 mL of PBS before 3 mL of medium containing 25 µM of pentathiepin was added for 10 min at 37 °C. After removing the solution and washing again with PBS, the cells were detached by using 0.5 mL of a diluted trypsin/EDTA-PBS solution (25%) and harvested with 1 mL of culture medium by carefully rinsing the wells. The cell suspension was transferred to 1.5 mL tubes, centrifuged for 5 min at 500× g, and washed with 1 mL of PBS. After removing the supernatant, each pellet was resuspended in 0.5 mL of PBS for measurement via the MACSquant Analyzer 10 at λEx/Em = 488/530 nm. Relative ROS levels resulting from treatment with pentathiepin were calculated by relating the fluorescence intensity of treated samples to the negative control. For the experiments covering periods of 24 and 48 h, the cells were incubated with the compounds first and stained with DCFDA afterwards. To assess the influence of additional GSH, we included 3 or 30 µM GSH to the medium containing 25 µM of pentathiepin, and the protocol was followed as described.
# PATU-8902 = test: DCFDA flow cytometric ROS assay, acute; details: 25 µM, 15 min
# Experimental: as §1, §2
# [1] = test system: caspase-3 and -7 in HAP-1; test: luminescent caspase activity assay; details: pentathiepins IC90, doxorubicin 0.5 µM, 24 h
# Source text: To further corroborate this mode of cell death, we performed a luminescent caspase assay by measuring caspase-3 (cas-3) and caspase-7 (cas-7) activities (Figure 16). Both are executioner caspases that are present as zymogens (35 kDa) and become active after being cleaved (fragment sizes 17 and 19 kDa) by initiator caspases. Activated cas-3 and -7 in turn have several other substrates, including PARP1. In this assay, a precursor with a caspase-specific target sequence was converted into its luminescent form by active caspase-3 or -7, thereby emitting light that can be quantified.
# To study the activation of the effector caspases -3 and -7, we performed a luminescence-based assay according to the manufacturer’s instructions (Caspase-Glo, Promega, Walldorf, Germany). Briefly, 5000 cells were seeded in 0.1 mL per well of a 96-well plate and allowed to adhere overnight. […] Afterwards, the standard protocol was followed, including a 30 min incubation time before measurement of luminescent signals by using the Spectramax i3x (Molecular Devices, Sunnyvale, CA, USA). After subtraction of the background luminescence the positive control and treatment conditions were related to the negative control.
# PARP1 in HAP-1 = test: Western blot of cleaved PARP1; details: pentathiepins IC90, doxorubicin 0.5 µM, 24 h
# Experimental: (§3) In addition to general flow cytometric and microscopic analyses, Western blotting was performed to detect the apoptosis-relevant protein PARP1 (poly(ADP-ribose) polymerase 1) and its cleavage fragment (Figure 17 and Figures S29–S34). Full-length PARP1 (116 kDa) is involved in DNA repair, and a cleavage by caspases (fragment sizes 24 and 89 kDa) caused by caspase-3 and -7 is a hallmark of late apoptosis.
# (§4) All detected specific bands were normalized to the total protein load per lane by the TGX stain-free gel system from Bio-Rad.
# (§5) All Western blot analyses were performed with reagents, material, and devices purchased from Bio-Rad (Feldkirchen, Germany) if not stated otherwise. To obtain protein lysates, we seeded cells and treated them as described for the other methods. […] Cells were harvested by trypsinization and centrifugation for 5 min at 500× g. After a washing step with PBS, the cell pellet was resuspended in lysis buffer (Tris 50 mM (pH 7.4), 100 mM NaCl, 100 mM NaF, 5 mM EDTA, 0.2 mM Na3VO4, 0.1% Triton-X, and 1% protease inhibitor cocktail added immediately before use). Lysis was supported by incubating the samples for 10 min in an ultrasonic bath before centrifuging for 10 min at 18,000 × g and 4 °C. Protein quantification was performed via the Bradford method using ROTI®nanoquant reagent (Carl Roth GmbH, Karlsruhe, Germany) and bovine serum albumin as calibration standard. For electrophoretic separation, 15–40 µg of protein was loaded per well of a polyacrylamide gel (Mini- or Midi-Protean® TGX stain-free gel, Bio-Rad, Feldkirchen, Germany), and subsequent blotting was performed with Trans-Blot®Turbo™TransferPack Mini or Midi PVDF membranes from Bio-Rad (Feldkirchen, Germany). The membranes were blocked with a 10% non-fat milk powder solution in Tris-buffered saline (TBS; 2.42 g/L Tris, 8.48 g/L NaCl in water) plus 0.5% Tween-20 (TBST) for 1 h at RT. Incubation with primary antibodies took place over night at 4 °C in a 1:1000 dilution in TBST containing BSA (1%). The secondary antibodies conjugated to horse-radish peroxidase were diluted 1:10,000 in TBST and 1% BSA, and incubated for 4 h at RT. A detection step followed, applying Clarity™Western ECL substrate with subsequent imaging via the INTAS Advanced Fluorescence Imager. Between all incubation steps, the blots were washed three times for 10 min with TBST. The bands were quantified with the ImageLab software and normalized using the total protein quantification of the TGX stain-free gel system from Bio-Rad.
# PARP1 in HAP-1.KO.GPx1 = test: Western blot of cleaved PARP1; details: pentathiepins IC90, doxorubicin 0.5 µM, 24 h
# Experimental: as §3, §4, §5
caspase-3 and -7 activity vs solvent control [1],Structure (SMILES),intracellular ROS levels (DanG),intracellular ROS levels (PATU-8902),cleaved PARP1 (PARP1 in HAP-1),cleaved PARP1 (PARP1 in HAP-1.KO.GPx1)
statistically significant results,"CCOc1c2c(c3ccc(C(=O)N(CC)CC)cn13)SSSSS2 [Compound 4, 6-Ethoxy-N,N’-diethyl-[1,2,3,4,5]pentathiepino[6,7-a]indolizine-9-carboxamide]",high levels of intracellular ROS were detected,high levels of intracellular ROS were detected,,
statistically significant results,"CCOc1c2c(c3ccc(C(=O)N4CCN(S(=O)(=O)c5ccc(C)cc5)CC4)cn13)SSSSS2 [Compound 6, (6-Ethoxy-[1,2,3,4,5]pentathiepino[6,7-a]indolizin-9-yl)(4-tosylpiperazinyl)methanone]",,,relevant and significant quantities of cleaved PARP1,relevant and significant quantities of cleaved PARP1
statistically significant results,"CCOc1c2c(c3ccc(C(=O)N4CCCCC4)cn13)SSSSS2 [Compound 2, (6-Ethoxy-[1,2,3,4,5]pentathiepino[6,7-a]indolizin-9-yl)(piperidinyl)methanone]",high levels of intracellular ROS were detected,high levels of intracellular ROS were detected,,
,"CCOc1c2c(c3ccc(C(=O)N4CCN(C(=O)c5ccc(F)cc5)CC4)cn13)SSSSS2 [Compound 5, (6-Ethoxy-[1,2,3,4,5]pentathiepino[6,7-a]indolizin-9-yl)(4-(4-fluorobenzoyl)piperazinyl)methanone]",high levels of intracellular ROS were detected,high levels of intracellular ROS were detected,trends for increased levels,trends for increased levels
,"CCOc1c2c(c3ccc(C(=O)N4CCOCC4)cn13)SSSSS2 [Compound 3, (6-Ethoxy-[1,2,3,4,5]pentathiepino[6,7-a]indolizin-9-yl)(morpholino)methanone]",high levels of intracellular ROS were detected,high levels of intracellular ROS were detected,trends for increased levels,trends for increased levels
